Assay results reported in PMC12040169 (PLOS Biology, 2025).

What was measured:
[1] = tested on: T1, CTL2-GFP (C. trachomatis L2/434/Bu, GFP-expressing); test: microbe, parasite or virus in culture; parameters: Intracellular C. trachomatis growth in HeLa cells, bulk GFP fluorescence relative to DMSO; details: Chlamydia trachomatis, HeLa, 28.5 h; bulk GFP, mean of 2; read-out: % of control remaining
T1 construct: L2/434/Bu, GFP-expressing
Description: MICs were calculated as described above.

in vitro = test: in vitro; parameters: Viability of infected HeLa host cells, resazurin conversion, bulk resorufin fluorescence relative to DMSO; details: human, hela cells; bulk resorufin, mean of 2
[2] = tested on: T2, C. trachomatis L2/434/Bu expressing GFP (CTL2-GFP); test: microbe, parasite or virus in culture; parameters: C. trachomatis total inclusion area by high-content imaging, normalised to DMSO; details: Chlamydia trachomatis, HeLa, 28.5 h; total inclusion area; read-out: % of control remaining
T2 construct: L2/434/Bu GFP intracellular growth in HeLa cells
Source text: We screened a library of 36,785 small molecules displaying drug-like properties and covering a wide chemical space (Fig 1A and S2A Data). In this process, we also complemented the assay described above with an imaging-based readout (Fig 1B). After measurements of bulk GFP and resorufin fluorescence, cells were fixed, stained with the DNA dye Hoechst, and imaged at a high-content imaging platform to detect chlamydial inclusions (GFP) and host cell nuclei (Hoechst). The total area and number of inclusions in individual wells and the number of nuclei then served as additional proxies for chlamydial growth and host cell viability. […] MICs were calculated as described above.

| Compound | activity at 1 µM [1] [%] | activity at 5 µM [1] [%] | activity at 10 µM [1] [%] | viability at 28.5 h, 1 µM (in vitro) [%] | viability at 28.5 h, 5 µM (in vitro) [%] | viability at 28.5 h, 10 µM (in vitro) [%] | activity at 1 µM [2] [%] | activity at 5 µM [2] [%] | activity at 10 µM [2] [%] |
| --- | --- | --- | --- | --- | --- | --- | --- | --- | --- |
| CCc1ccc(S(=O)(=O)Nc2cc(SCC(=O)O)c(O)c3ccccc23)cc1 [CBK265580] | 97.7 | 47 | 37.3 | 95.6 | 88.8 | 81.9 | 84.1 | 15.3 | 7.41 |
| Cc1cc(C)nc(NC(=N)NCCc2c[nH]c3ccccc23)n1 [CBK266321] | 89.2 | 67.2 | 37.1 | 109 | 98.8 | 81.2 | 75.6 | 44.4 | 14.7 |
| OCCNc1nc(Nc2ccc(Br)cc2)nc2ccccc12 [CBK266724C] | 69.3 | 0.15 | 0 | 122 | 116 | 121 | 59.5 | 2.92 | 0.726 |
| O=C(CC1SC(Nc2ccc(O)cc2)=NC1=O)c1ccccc1 (stereo not drawn) [CBK267009] | 65.7 | 34 | 33 | 114 | 112 | 107 | 84.6 | 35.2 | 35.5 |
| O=C(CSCc1ccc(Cl)cc1)Nc1ccc(S(=O)(=O)N2CCCCCC2)cc1 [CBK267017] | 99.4 | 85 | 60.7 | 101 | 104 | 104 | 92.3 | 104 | 54.9 |
| O=C(O)c1[nH]c2ccccc2c1C(c1ccsc1)c1c(C(=O)O)[nH]c2ccccc12 [CBK267811] | 113 | 109 | 85.2 | 99.3 | 106 | 121 | 49.5 | 80.4 | 22.6 |
| Cc1cc(C(=O)Nc2ccc(S(=O)(=O)Nc3onc(C)c3C)cc2)no1 [CBK268166] | 113 | 81.5 | 33.7 | 101 | 92.7 | 100 | 89.9 | 77.7 | 61.3 |
| COc1ccc(OC)c(Nc2nc(NCC3CCCO3)c3ccccc3n2)c1 (stereo not drawn) [CBK268403C] | 127 | 105 | 26.6 | 97.5 | 96.9 | 99.1 | 73.4 | 61 | 10.2 |
| CN(C(=O)Cc1ccsc1)c1nc2c(s1)CCc1c-2cnn1C [CBK281929] | 104 | 56.8 | 29.8 | 103 | 96 | 93.3 | 85.4 | 28.7 | 14.3 |
| COc1ccc2cc3c(nc2c1)OC(=O)N(CC1CC1)C3 [CBK282432] | 92.7 | 19 | 0.603 | 112 | 108 | 110 | 90.9 | 15.2 | 0.584 |
| CCC(CN1CCCC1)NC(=O)Cc1ccc(OC)c(C)c1 (stereo not drawn) [CBK282752] | 100 | 50.3 | 19.9 | 108 | 112 | 108 | 108 | 47.2 | 26.1 |
| O=C1CC[C@@H](NCc2cccs2)[C@H](c2cc(F)cc(F)c2)N1 [CBK283129] | 98.3 | 98.8 | 82.2 | 112 | 109 | 110 | 98.3 | 76.7 | 78.8 |
| COc1ccc([C@H]2CN(Cc3ccccc3)[C@@H]3CCN(C(=O)Cc4ccsc4)C[C@H]23)cc1 [CBK285551] | 151 | 107 | 36.7 | 89.3 | 93.6 | 93 | 148 | 87.9 | 48.8 |
| COc1ccc(CC(=O)N2CCCC(c3nc(C)c4c(n3)N(CC3CC3)CCC4)C2)cc1 (stereo not drawn) [CBK286228] | 130 | 39.3 | 5.11 | 102 | 97.8 | 97 | 88.7 | 46.6 | 3.42 |
| COc1ccc([C@H]2CN(Cc3ccccc3)[C@@H]3CCN(C(=O)Cc4ccccc4)C[C@H]23)cc1 [CBK286285] | 130 | 111 | 49.2 | 93.8 | 97.6 | 104 | 109 | 95.8 | 41.4 |
| CC(C(=O)N1CCC2(CC1)NC(=O)c1ccccc1N2)(c1ccccc1)c1ccccc1 [CBK286308] | 96.5 | 59.6 | 46.3 | 97.7 | 93.1 | 101 | 82.6 | 44.9 | 28.3 |
| CC(=O)N1CCc2sccc2C1c1ccccc1NCc1ccoc1 (stereo not drawn) [CBK286432] | 87.1 | 34 | 26.3 | 85 | 86.8 | 85.9 | 61.5 | 24.5 | 22.5 |
| CCC(=O)N1CCCc2cc(C(O)CN3CCN(c4ccc(F)cc4)CC3)ccc21 (stereo not drawn) [CBK286480] | 116 | 62 | 10.5 | 93 | 84 | 90.3 | 104 | 58.2 | 7.99 |
| CN1CCN(c2cc3c(cc2F)c(=O)c(C(=O)O)cn3-c2ccc(F)cc2)CC1 [CBK287138] | 14.6 | 5.16 | 0.93 | 103 | 102 | 104 | 11.1 | 0.783 | 0.31 |
| CCCCC(=O)/N=C(\N)Nc1nc2ccccc2o1 [CBK287937] | 119 | 117 | 117 | 106 | 102 | 100 | 100 | 71.1 | 60.6 |
| Oc1ccc(Cn2cnc3ccccc32)c2cccnc12 [CBK291202] | 103 | 47.1 | 19.3 | 105 | 104 | 96 | 116 | 52.7 | 24.3 |
| Cc1ccc(Nc2ncc(C(=O)NCCCN3CCN(c4cccc(Cl)c4)CC3)c3ccccc23)cc1Cl [CBK291251] | 89.3 | 83.3 | 70.2 | 106 | 113 | 99.2 | 93.1 | 97.7 | 75.8 |
| COc1ccc(Br)cc1C1CC(=O)Nc2c(-c3cccc(F)c3)csc21 (stereo not drawn) [CBK294442] | 132 | 65.3 | 59.3 | 96.8 | 96.5 | 95.7 | 118 | 29.4 | 66.4 |
| C[C@H](NC(=O)Cc1ccc(-c2ccccc2)cc1)c1nc2ccccc2[nH]1 [CBK296998] | 153 | 142 | 185 | 89.7 | 97.4 | 100 | 110 | 35.8 | 30.7 |
| O=C(O)c1cn(C2CC2)c2cc(N3CCN(C(=O)Cc4ccccc4Cl)CC3)c(F)cc2c1=O [CBK297136] | 153 | 90.9 | 28.4 | 88.5 | 89.1 | 93.4 | 145 | 74.4 | 16.8 |
